Results from ChEMBL document CHEMBL1131268, “Preparation of biotinylated allosamidins with strong chitinase inhibitory activities” (Bioorg Med Chem Lett, 1998).

Tests used:
[1] = test system: Chitinase (Trichoderma); assay: Compound was evaluated for inhibitory activity against Trichoderma Chitinase in presence of allosamidin at the dose of 7.8 ug/mL
[2] = test system: Chitinase (Trichoderma); assay: Compound was evaluated for inhibitory activity against Trichoderma Chitinase in presence of allosamidin at the dose of 125 ug/mL
[3] = test system: Chitinase (Trichoderma); assay: Compound was evaluated for inhibitory activity against Trichoderma Chitinase in presence of allosamidin at the dose of 31 ug/mL
[4] = test system: Chitinase (Trichoderma); assay: Compound was evaluated for inhibitory activity against trichoderma chitinase in presence of allosamidin at the dose of 500 ug/mL

Q: For `CC(=O)NC(/C=N/NC(=O)CCCCCNC(=O)CCCCC1SC[C@@H]2NC(=O)N[C@H]12)C(OC(/C=N/NC(=O)CCCCCNC(=O)CCCCC1SC[C@@H]2NC(=O)N[C@H]12)CO)OC1C(CO)OC(OC2C(O)C3N=C(N(C)C)OC3C2CO)C(NC(C)=O)C1O` (some centres undefined), which inhibition [1] is on record?
A: Its inhibition is 7.8%.

Q: What about the inhibition [2] of the same compound?
A: Its inhibition is 42.2%.

Q: And the inhibition [3]?
A: The inhibition was 21.9%.

Q: What about the inhibition [4] of the same compound?
A: Its inhibition is 65.6%.
